Columns and labels:
[1] = system: MM1S tumor bearing mice; experiment: In vivo microCT analysis of tibial trabecular bone density; parameters: species or system SCID-beige mice; conditions: for increase in median trabecular bone density: after 4 weeks of treatment
Description: (§1) Animals were anesthetized with 2% isoflurane mixed with oxygen (2 L/min.) and then placed in a mouse holder (custom made, Peter Ingold, NIBR Basel) specifically designed to align both tibiae and mounted into an in vivo high resolution microCT scanner (VivaCT40, Scanco, Switzerland). To insure correct positioning of the mouse, a scout view of bilateral tibia bones and knee joints was taken and the region of interest (ROI, 2.23 mm in length) was positioned to start at the growth plate extending distally over the area of the trabecular bone (FIG. 3). The scanner was set to a nominal isotropic voxel size of 21 μm, referred to as medium/standard resolution. The X-ray tube was operated at 55 kVp and 145 mA with a focal spot size of 5 μm. Five hundred projection images were acquired per scan with an integration time of 180 ms. Tomographic images were reconstructed on a VMS cluster (HP Alpha, HP, Palo Alto, USA) in 1024×1024 pixel matrices using a conebeam back projection procedure resulting in 315 axial slices.
(§2) For determination of trabecular and cortical bone features, a 2.23 mm region of interest was placed to start at the growth plate extending distally. 106 axial slices were obtained using a μ-CT VivaCT40Scanner (SCANCO, Switzerland) with 55 kv, 145 mA, 180 ms integration time and 21 μm resolution. Trabecular bone density (BV/TV) was measured in a 0.735 mm region of a tibia (9 slices proximal and 25 slices distal from the tibial tuberosity) using SCANCO software (SCANCO, Switzerland) with a threshold of 275 is used to define calcified bone volume (BV). Cortical bone density (BV/TV) was measured in a 1.5 mm region of a tibia (15 slices proximal and 55 slices distal from the tibial tuberosity) using SCANCO software (SCANCO Switzerland) with a threshold of 275. Three-dimensional analysis was performed on the determined regions utilizing the SCANCO operational software. All treatment groups were scanned over the course of two days, with equal numbers of animals from each treatment group scanned each day.
FIG. 4 describes a […] region of interest was placed to start at the growth plate extending distally. 106 axial slices were obtained using a μ-CT VivaCT40Scanner (SCANCO, Switzerland) with 55 kv, […], 180 ms integration time and 21 μm resolution. Trabecular bone density, bone volume/total volume (BV/TV), was measured in a 0.735 mm region of a tibia (10 slices proximal and 25 slices distal from the tibial tuberosity) using SCANCO software (SCANCO, Switzerland) with a threshold of 275. Cortical bone density, bone volume/total volume (BV/TV), was measured in a 1.5 mm region of a tibia (15 slices proximal and 55 slices distal from the tibial tuberosity) using SCANCO software (SCANCO Switzerland) with a threshold of 275.

[2] = system: MM1S tumor bearing mice; experiment: In vivo microCT analysis of tibial cortical bone density; parameters: species or system SCID-beige mice; conditions: Study #0879, 15 mg/kg, tibia
Description: as §1, with “The X-ray tube was operated at 55 kVp and 145 mA with a focal spot size of 5 μm. Five hundred projection images were acquired per scan with an integration time of 180 ms. Tomographic images were reconstructed on a VMS cluster (HP Alpha, HP, Palo Alto, USA) in 1024×1024 pixel matrices using a conebeam back projection procedure resulting in 315 axial slices.” left out
as §2, with “106 axial slices were obtained using a μ-CT VivaCT40Scanner (SCANCO, Switzerland) with 55 kv, 145 mA, 180 ms integration time and 21 μm resolution.” left out, “All treatment groups were scanned over the course of two days, with equal numbers of animals from each treatment group scanned each day.” left out

[3] = system: MM1S cells; experiment: MM1S disseminated multiple myeloma model, tumor burden by bioluminescence; format: in vivo, SCID-beige mice
Experimental: Female SCID-beige mice were injected with MM1S cells (2×10^6) intravenously (iv) into the tail vein on Day 0. Treatment was initiated on Day 10 when the average tumor burden, as determined by bioluminescence, reached approximately 8.0×10^5-1.0×10^6 photons per second. All treatment groups consisted of 8 animals. […] Tumor burden and body weights were recorded once a week during the active dosing period. In vivo micro-computed tomography (microCT) images were acquired in live animals on day 32 and 33 (Study #1) or Day 34 and 35 (Study #2). In the second study, animals were individually monitored until achievement of clinical endpoint. Treatments were started on Day 10 post-iv tail implantation (2.0 million cells/animal). […] Vehicle control (D5W) was administered ip times per week, for 3 weeks. Initial group size: 8 animals. Final efficacy data and body weight change were calculated 72 hours post-last dose. Treatments were started on Day 10 post-iv tail implantation (2.0 million cells/animal). […] Vehicle control (D5W) was administered ip times per week, for 3 weeks. Initial group size: 8 animals. With respect to FIG. 2, treatments were started on Day 11 post-iv tail implantation (2.0 million cells/animal). NVP-LBH589-CU was administered ip, at 15 mg/kg (A), or 10 and 20 mg/kg (B), 5 times a week (qd×5/wk) for 4 weeks. Vehicle control (D5W) was administered ip 5 times a week (qd×5/wk), for 4 weeks. Bortezomib was administered iv, at 0.2 mg/kg, once per week (qwk) or 1 mg/kg, twice per week in Study #0879 for 4 weeks (biwk) (B). Initial group size: 8 animals. Final efficacy data are shown in the A panel for Study #0879 and B panel for Study #0942. Body weight changes were calculated on 24 hours post-last dose for each study (right panels).

[4] = system: TRACP5B; experiment: Serum bio-marker TRACP5B ELISA (MouseTRAP Assay); format: in vivo, mouse
Experimental: A serum marker of bone metabolism, TRACP5B, was assessed for mouse serum changes. The MouseTRAP™ Assay kit is an ELISA assay (Cat#SB-TR103, IDS Fountain Hills, Ariz.). Briefly, polyclonal […] TRACP5B antibodies are incubated in 96 well plates coated with anti-rabbit IgG. This ELISA kit is specific for mouse TRACP5B only. This assay has a reported sensitivity of 0.1 U/L.
TRACP5B serum levels were evaluated as a measure of osteoclast activity. The level of a TRACP5B was analyzed in FIG. 7 and Table 12.

[5] = system: MM1S cells; experiment: Time to clinical endpoint in MM1S model (Study #0942); format: in vivo, SCID-beige mice; conditions: for Median Time to Clinical Endpoint: endpoint = clinical score of 3
Experimental: Female SCID-beige mice were injected with MM1S cells (2×10^6) intravenously (iv) into the tail vein on Day 0. Treatment was initiated on Day 10 when the average tumor burden, as determined by bioluminescence, reached approximately 8.0×10^5-1.0×10^6 photons per second. All treatment groups consisted of 8 animals. […] Tumor burden and body weights were recorded once a week during the active dosing period. In vivo micro-computed tomography (microCT) images were acquired in live animals on day 32 and 33 (Study #1) or Day 34 and 35 (Study #2). In the second study, animals were individually monitored until achievement of clinical endpoint. […] Each animal was monitored daily for progression of signs of disease progression, including mobility and general health. Animals were scored on a clinical scale from 0-4. […] These animals were removed from analysis due to treatment related deaths. […] The median time to endpoint for the vehicle treated animals was 37 days.

[6] = Study #0879, 15 mg/kg IP qdx5, 31 days after implantation
[7] = Study #0942, 10 mg/kg IP qdx5, 35 days after implantation
[8] = Study #0942, 20 mg/kg IP qdx5, 35 days after implantation

## Cc1[nH]c2ccccc2c1CCNCc1ccc(/C=C/C(=O)NO)cc1 [LBH589, N-hydroxy-3-[4-[[[2-(2-methyl-1H-indol-3-yl)-ethyl]-amino]methyl]phenyl]-2E-2-propenamide]
[1]; Study #0879, 15 mg/kg, after 3 weeks of treatment
  increase in mean trabecular bone density: 5.5 fold
[1]; Study #0879, 15 mg/kg, tibia
  Mean Trabecular Density (BV/TV): 14.48 % BV/TV
[1]; Study #0942, 10 mg/kg
  increase in median trabecular bone density: 11.8 fold
[1]; Study #0942, 10 mg/kg, tibia
  Median Trabecular Density (BV/TV): 8.23 % BV/TV
[1]; Study #0942, 20 mg/kg
  increase in median trabecular bone density: 19.1 fold
[1]; Study #0942, 20 mg/kg, tibia
  Median Trabecular Density (BV/TV): 12.89 % BV/TV
[2]
  Mean Cortical Density (BV/TV): 98.3%
[3]; [6]
  % Regression: None
  % T/C: 22%
  Delta Mean Tumor Burden (mean ± SEM): 292.4E+6 ± 92.6E+6 photons/sec
[3]; Study #0879, 15 mg/kg qdX5, Day 31
  reduction in tumor burden: ~78%
[3]; [7]
  % Regression: None
  % T/C: 31%
  Delta Mean Tumor Burden (mean ± SEM): 348.5E+6 ± 49.6E+6 photons/sec
[3]; Study #0942, 10 mg/kg qdX5, Day 35
  reduction in tumor burden: ~79%
[3]; [8]
  % Regression: None
  % T/C: 9%
  Delta Mean Tumor Burden (mean ± SEM): 107.7E+6 ± 42.6E+6 photons/sec
[3]; Study #0942, 20 mg/kg qdX5, Day 35
  reduction in tumor burden: ~91%
[3]; both studies (#0879 and #0942)
  significance of reduction in tumor burden: statistically significant
[4]; Study #0879, 15 mg/kg
  Mean TRACP5B Serum Levels: 7.1
[4]; Study #0879, LBH589 alone
  decrease of serum levels of TRACP5B compared to vehicle: 41%
[5]; Study #0942, 10 mg/kg
  Median Time to Clinical Endpoint: 54 days
[5]; Study #0942, 20 mg/kg
  animals without symptoms of disease 80 days after implant: One of the remaining six
  Median Time to Clinical Endpoint: 61 days
